Article PMC7590976, “Detection of Active Granzyme A in NK92 Cells with Fluorescent Activity-Based Probe” (Journal of Medicinal Chemistry, 2020)
Several values for one entry are separate records, joined by “and”; a condition that tells them apart may be missing. Identical values can stand only once. Entries after “also recorded” stand apart in the source; their conditions may differ. Non-standard residues stand in square brackets, D forms with d. *: point of attachment. Oic = O=C(O)[C@@H]1C[C@@H]2CCCC[C@@H]2N1; ACC = NC(=O)Cc1cc(=O)oc2cc(N*)ccc12; Tic = O=C(O)[C@@H]1Cc2ccccc2CN1

Tests used:
GrK = molecular target: T1, GrK (Homo sapiens, UniProt P49863); test: GrA substrate selectivity testing on GrK; format: biochemical; details: 488 nM GrK
T1 construct: made in house; host or cells: Pichia pastoris
T1 sequence (P49863 27-264): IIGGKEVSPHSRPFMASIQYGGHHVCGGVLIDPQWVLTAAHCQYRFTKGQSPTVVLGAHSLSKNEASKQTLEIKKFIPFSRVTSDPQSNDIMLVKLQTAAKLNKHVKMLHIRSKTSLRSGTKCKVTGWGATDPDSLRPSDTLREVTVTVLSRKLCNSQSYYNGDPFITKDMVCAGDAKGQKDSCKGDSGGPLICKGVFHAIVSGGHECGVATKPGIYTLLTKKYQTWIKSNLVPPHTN
Source text: (§1) Since GrA and GrK are the most structurally similar Grs, they may recognize and hydrolyze the same natural and synthetic substrates. Therefore, we tested whether our new GrA substrates are also recognized by GrK or GrB (Figure 3A). For this experiment, we screened substrates SK8 to SK28 and a GrKref substrate (Ac-Tyr-Arg-Phe-Lys-ACC) or GrBref substrate (Ac-Ile-Glu-Pro-Asp-ACC) at the same concentration using a plate reader, and we monitored the increase in fluorescence over time. The linear portions of the diagram were analyzed, and as we expected, the majority of the substrates were well recognized by GrK, even better than their recognition by GrA. […] Based on that, we concluded that Tic-Gly-Oic-Arg is a leading sequence for a specific potent inhibitor and ABP for GrA.
(§2) Figure 3 (A) GrA substrate selectivity testing on GrK and GrB. Substrates SK8–SK28 and the reference GrK and GrB substrates were placed in a 96-well plate at a concentration of 200 μM and treated with GrK or GrB. […] Data present the average of 2 replicates as adjusted RFU/s.
(§3) Figure S2. Selectivity of SK15 substrate toward selected serine proteases (GrA, GrB, GrM, GrK,
(§4) PR3, and hNE). The reference substrates were as follows: Ac-Ile-Gly-Pro-Arg-ACC for GrA, Ac -Tyr-
Arg-Phe-Lys-ACC for GrK, Ac-Ile-Glu-Pro-Asp-ACC for GrB, Ac-Lys-Val-Pro-Leu-ACC for GrM, […]

[1] = tested on: human neutrophil elastase (hNE); test: Selectivity of SK15 substrate toward hNE; format: biochemical; details: Figure S2: substrate 67 µM, 3.3 nM hNE
Source text: as §1, §3, §4
(§5) Arg-Phe-Lys-ACC for GrK, Ac-Ile-Glu-Pro-Asp-ACC for GrB, Ac-Lys-Val-Pro-Leu-ACC for GrM,
(§6) Ac-Glu(O-Bzl)-Lys(Ac)-Hyp(Bzl)-Nva-ACC for PR3 and Ac-Arg(NO)2-Glu(Bzl)-Oic-Abu-ACC for hNE.
(§7) Substrates were placed in a 96-well plate at a concentration of 67 µM and treated with optimal
(§8) and emission wavelengths. Data present the average of 2 replicates as adjusted RFU/s.
(§9) Figure S3. Detection of active GrA in NK92 cells. […]

GrB = molecular target: T2, GrB (Homo sapiens, UniProt P10144); test: GrA substrate selectivity testing on GrB; format: biochemical; details: substrate 200 μM (Fig 3A) or 67 μM, 18 nM GrB
T2 construct: made in house; host or cells: Pichia pastoris
Source text: as §1, §2, §3, §4, §5, §6, §7, §8
Figure S3. Detection of active GrA in NK92 cells.
(also on this page, place not known: S K15 hNE) . Ac-Tyr- -Arg(NO)2-Glu(Bzl)-Oic-Abu-ACC ( 89 G rA cell s. reference reference SK15 reference SK15 reference SK15 reference SK15 reference SK15 0 50 100 substrate turnover, %RFU/s PR3GrMGrBGrK hNEGrA SK15 selectivity) […]

GrA [2] = molecular target: T3, GrA (Homo sapiens, UniProt P12544); test: Steady-state Michaelis–Menten kinetics of fluorogenic ACC substrates with GrA; format: biochemical
T3 construct: made in house; host or cells: Pichia pastoris
T3 sequence (P12544 29-262): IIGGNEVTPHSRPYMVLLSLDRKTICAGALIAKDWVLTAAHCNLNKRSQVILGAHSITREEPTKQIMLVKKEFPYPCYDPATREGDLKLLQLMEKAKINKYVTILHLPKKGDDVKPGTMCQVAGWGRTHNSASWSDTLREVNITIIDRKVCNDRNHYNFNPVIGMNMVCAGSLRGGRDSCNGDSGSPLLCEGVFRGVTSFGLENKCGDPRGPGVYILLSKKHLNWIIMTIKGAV
Source text: All chemical and biological reagents were purchased from commercial suppliers and used without further purification. The following reagents for solid phase peptide synthesis, Rink Amide RA resin (particle size 200–300 mesh, loading 0.74 mmol/g), 2-chlorotrityl chloride resin, Fmoc-protected amino acids, biotin, 1-[bis(dimethylamino)methylene]-1H-1,2,3-triazolo[4,5-b] pyridinium 3-oxid hexafluorophosphate (HATU), piperidine, diisopropylcarbodiimide (DICI), and trifluoroacetic acid (TFA), were purchased from Iris Biotech GmbH (Marktredwitz, Germany); anhydrous N-hydroxybenzotriazole (HOBt, purity >98%) was purchased from Creosauls; 2,4,6-collidine (2,4,6-trimethylpyridine), HPLC pure acetonitrile, and triisopropylsilane (TIPS) were purchased from Sigma-Aldrich (Poznan, Poland); and N,N-diisopropylethylamie (DIPEA) was purchased from VWR International (Gdansk, Poland). Solvents such as N,N-dimethylformamide (DMF), dichloromethane (DCM), methanol (MeOH), diethyl ether (Et2O), and acetic acid (AcOH) were purchased from Avantor (Gliwice, Poland). Cy5 was purchased from Lumiprobe GmbH (Hannover, Germany). Human neutrophil elastase was purchased from BioCentrum (Kraków, Poland) and proteinase 3 from Athens Research Technology (Athens, USA). Anti-GrA antibody (rabbit, monoclonal, ab209205) was obtained from Abcam (Cambridge, Great Britain). All cell lines were purchased from DSMZ (Braunschweig, Germany) or ATCC (Manassas, USA). All kinetic assays were performed using a Spectra Max Gemini XPS spectrofluorometer (Molecular Devices) on 96-well Corning plates. The parameters of the process were as follows: 37 °C; excitation/emission wavelength, 355/460 nm; cutoff, 455 nm; varying concentrations of substrates and enzyme. All measurements were performed in duplicate, and the data represent the average of these repetitions

proteinase 3 (PR3) = test: Selectivity of SK15 substrate toward PR3; format: biochemical; details: Figure S2: substrate 67 µM, 3.4 nM PR3
Source text: as §1, §3, §4, §5, §6, §7, §8, §9

GrA [3] = test: Screening of individual substrates SK7–SK28 with GrA; format: biochemical, human; details: Figure 2A: substrate 1 μM, 89 nM enzyme (method b64: 67 μM, 583 nM GrA); adjusted RFU/s, average of 2 replicates
Source text: Data present the average of 2 replicates as adjusted RFU/s. (B) Comparison of SK7 (blue) and SK15 (red) structures.

granzyme M (GrM) = test: Selectivity of SK15 substrate toward GrM; format: biochemical, human; details: Figure S2: substrate 67 µM, 74 nM GrM
Source text: as §1, §3, §4, §5, §6, §7, §8, §9

[4] = GrA 93 nM, assay buffer pH 7.5, 37 °C, ACC fluorescence 355/460 nm

T2 sequence (P10144 21-247): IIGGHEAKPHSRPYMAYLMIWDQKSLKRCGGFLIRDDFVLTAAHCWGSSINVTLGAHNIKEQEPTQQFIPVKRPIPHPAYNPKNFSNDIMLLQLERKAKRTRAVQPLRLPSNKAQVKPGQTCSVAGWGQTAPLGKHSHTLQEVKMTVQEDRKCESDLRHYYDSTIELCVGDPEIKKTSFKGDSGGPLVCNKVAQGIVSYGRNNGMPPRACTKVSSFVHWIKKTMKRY

**Q.** “Ac-[Tic]G[Oic]R-{ACC} (SMILES CC(=O)N1Cc2ccccc2C[C@H]1C(=O)NCC(=O)N1[C@H](C(=O)N[C@@H](CCCNC(=N)N)C(=O)Nc2ccc3c(CC(N)=O)cc(=O)oc3c2)C[C@@H]2CCCC[C@@H]21) [SK15]” was tested. Which “hydrolysis by GrK” value (GrK; Figure 3A and S2, substrate 200 μM (Fig 3A) or 67 μM (Fig S2), adjusted RFU/s, 2 replicates) did it give?
**A.** 20%

**Q.** What about the “hydrolysis by GrK (in words)” value (GrK; substrate 200 μM (Fig 3A) or 67 μM) of the same substance?
**A.** barely hydrolyzed

**Q.** And the “recognition by hNE (in words)” value [1]?
**A.** not recognized

**Q.** And the “hydrolysis by GrB (in words)” value (GrB)?
**A.** inactive; also recorded: not recognized

**Q.** What about the kcat (GrA [2]; [4]) of the same substance?
**A.** 0.27 ± 0.0029 s⁻¹

**Q.** What about the kcat/KM (GrA [2]; [4]) of the same substance?
**A.** 3100 M^–1 s^–1 and 3100 ± 80 s^–1 M^–1

**Q.** And the Km (GrA [2]; GrA 93 nM, substrate 1000–7.81 μM, 50 mM Tris, 100 mM NaCl, 5 mM CaCl2, 0.01% Tween-20, pH 7.5, 37 °C, ACC fluorescence 355/460 nm, Michaelis–Menten nonlinear regression, duplicate)?
**A.** 87.4 ± 1.3 µM

**Q.** And the “GrA activity against the substrate relative to the reference sequence SK7” value (GrA [2]; ratio to SK7)?
**A.** approximately 40 fold

**Q.** And the “recognition by PR3 (in words)” value (proteinase 3 (PR3))?
**A.** not recognized

**Q.** And the “hydrolysis of individual substrate by GrA (in words)” value (GrA [3])?
**A.** most active substrate

**Q.** What about the “recognition by GrM (in words)” value (granzyme M (GrM)) of the same substance?
**A.** not recognized
